This is an account of results in publication PMC4404333, “Identification of Selective Inhibitors of the Plasmodium falciparum Hexose Transporter PfHT by Screening Focused Libraries of Anti-Malarial Compounds” (PLoS ONE, 2015).

Several values for one entry are separate records, joined by “and”; a condition that tells them apart may be missing. Equal entries are not always repeated. Where two headings read alike, the source gives them in different places.

The target in one assay is T1, human GLUT1 (Homo sapiens, UniProt P11166).
T1 sequence (P11166 1-492): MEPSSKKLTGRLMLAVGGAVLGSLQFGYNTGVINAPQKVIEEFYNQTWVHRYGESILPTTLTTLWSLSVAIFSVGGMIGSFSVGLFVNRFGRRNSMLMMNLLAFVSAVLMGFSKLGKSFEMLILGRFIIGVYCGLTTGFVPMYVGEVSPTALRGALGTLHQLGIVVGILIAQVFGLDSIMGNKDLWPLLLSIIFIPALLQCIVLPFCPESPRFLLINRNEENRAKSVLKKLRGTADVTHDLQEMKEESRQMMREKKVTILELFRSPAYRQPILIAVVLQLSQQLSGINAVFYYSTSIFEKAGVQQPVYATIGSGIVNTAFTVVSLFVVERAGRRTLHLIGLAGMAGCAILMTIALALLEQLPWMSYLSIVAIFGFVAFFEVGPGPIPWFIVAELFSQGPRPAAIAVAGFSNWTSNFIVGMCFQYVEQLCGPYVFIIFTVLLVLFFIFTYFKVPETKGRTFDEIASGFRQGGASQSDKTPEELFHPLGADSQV
Description: Uptake of [3H] D-glucose by L. mexicana Δlmxgt1-3 null mutants expressing GLUT1. Format: cell-based. To be noted: inhibition of uptake of 100 μM [3H] D-glucose, 1 min uptake assay. More on the design: expressed in transfected cells; host or cells: Leishmania mexicana promastigotes, Δlmxgt1-3 hexose transporter null mutant. Here is the method: (§1) Glucose uptake assays employed logarithmic phase L. mexicana promastigotes of the Δlmxgt1-3 hexose transporter null mutant strain expressing either PfHT or GLUT1 from an episomal expression vector [17]. Parasites (1x10^7) were resuspended in 100 μL phosphate buffered saline, pH 7.4. Prior to uptake, parasites were pre-incubated for 5 min with inhibitor, and uptake was initiated by adding 100 μL of 200 μM [^3H] D-glucose diluted to 4.0 μCi/mL. Uptake was terminated, typically after 1 min, by centrifuging the parasites through a layer of dibutyl phthalate, as described. Control uptake assays employing [^3H] hypoxanthine, [^3H] uridine, and [^3H] L-proline were performed similarly. Analysis of kinetic data was performed using Graph Pad Prism 4.0b software (Graph Pad).

Another assay concerns the target PfHT (Plasmodium falciparum, UniProt Q7KWJ5). Description: Uptake of [3H] D-glucose by L. mexicana Δlmxgt1-3 null mutants expressing PfHT. More on the design: expressed in transfected cells; host or cells: Leishmania mexicana promastigotes, Δlmxgt1-3 hexose transporter null mutant. To be noted: for SIglucose GLUT1/PfHT (Specificity Index, IC50 for GLUT1/IC50 for PfHT): uptake of 100 μM [3H] D-glucose; for Ki: linear regression; for Vmax: glucose uptake by PfHT. It is filed as cell-based. The method, then:
as §1

The subject of another assay is P. falciparum strain K1. Briefly: Proliferation of intraerythrocytic P. falciparum K1 (SYBR Green, 72 h). To be noted: Plasmodium falciparum, K1, 72 h, read-out: Pf K1 EC50. Format: cell-based, Plasmodium falciparum. Here is the method:
(§2) Two P. falciparum strains were used in this study and were provided by the MR4 Unit of the American Type Culture Collection (ATCC, Manassas, VA). Those two strains were the chloroquine sensitive strain 3D7 and the K1 strain that is resistant to chloroquine, pyrimethamine, and sulfadoxine.
(§3) Asynchronous parasites were maintained in culture based on the method of Trager. Parasites were grown in presence of fresh group O-positive erythrocytes (Key Biologics, LLC) in Petri dishes at a hematocrit of 4–6% in RPMI based media (RPMI 1640 supplemented with 0.5% AlbuMAX II, 25 mM HEPES, 25 mM NaHCO3 (pH 7.3), 100 μg/mL hypoxanthine, and 5 μg/mL gentamycin). Cultures were incubated at 37°C in a gas mixture of 90% N2, 5% O2, 5% CO2. For EC50 determinations, 20 μL of RPMI 1640 with 5 μg/mL gentamycin were dispensed per well in an assay plate (Corning 384-well microtiter plate, clear bottom, tissue culture treated, catalog no. 8807BC). 40 nL of compound, previously serially diluted in a separate 384-well white polypropylene plate (Corning, catalog no. 8748BC), was dispensed to the assay plate by hydrodynamic pin transfer (FP1S50H, V&P Scientific Pin Head) and then 20 μL of a synchronized culture suspension (1% rings, 4% hematocrit) was added to each well, thus making a final hematocrit and parasitemia of 2% and 1%, respectively. Assay plates were incubated for 72 h, and the parasitemia was determined by a method previously described: Briefly, 10 μL of the assay solution in PBS (10X SYBR Green I, 0.5% v/v triton X-100, 0.5 mg/mL saponin) was added to each well. Assay plates were shaken for 1 min, incubated in the dark for 90 min, and read with an Envision (Perkin Elmer) spectrophotometer at Ex/Em of 485 nm/535 nm. EC50s were calculated with a custom program (RISE, Robust Investigation of Screening Experiments) using a four-parameter logistic equation.

In another assay the test system is P. falciparum strain 3D7. Description: Proliferation of intraerythrocytic P. falciparum 3D7 (SYBR Green, 72 h). Format: cell-based, Plasmodium falciparum. The note with it: Plasmodium falciparum, 3D7, 72 h, read-out: Pf 3D7 EC50. Here is the method:
as §2, §3

Assay [1] has as its system P. falciparum strain 3D7 intraerythrocytic forms. More on the design: method as in PubChem web site, http://pubchem.ncbi.nlm.nih.gov/. The note with it: reported values; ref PubChem web site, http://pubchem.ncbi.nlm.nih.gov/; read-out: EC50 3D7 In vitro; cited from earlier work.
Setting [2] is: read-out: IC50 PfHT, inhibition of uptake of 100 μM [3H] D-glucose, 1 min uptake assay.

Chain of PfHT (Q7KWJ5 whole entry): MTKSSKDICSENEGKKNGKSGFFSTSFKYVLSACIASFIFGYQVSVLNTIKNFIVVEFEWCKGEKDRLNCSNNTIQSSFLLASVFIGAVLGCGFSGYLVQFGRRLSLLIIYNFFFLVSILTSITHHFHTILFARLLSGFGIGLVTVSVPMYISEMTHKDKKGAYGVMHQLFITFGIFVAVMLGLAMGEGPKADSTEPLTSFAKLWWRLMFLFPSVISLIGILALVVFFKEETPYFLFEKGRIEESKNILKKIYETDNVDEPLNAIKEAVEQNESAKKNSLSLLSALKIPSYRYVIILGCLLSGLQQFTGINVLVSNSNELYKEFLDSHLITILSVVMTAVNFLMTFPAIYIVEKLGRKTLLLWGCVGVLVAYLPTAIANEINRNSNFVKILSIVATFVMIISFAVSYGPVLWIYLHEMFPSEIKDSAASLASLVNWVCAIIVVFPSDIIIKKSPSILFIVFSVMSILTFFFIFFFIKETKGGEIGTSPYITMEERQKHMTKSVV

Compound `Cc1ccc(C(=O)Nc2cccc(-c3nc4ccccc4[nH]3)c2)cc1` [Compound 16] showed an IC50 on human GLUT1 of 72 µM. Also, on PfHT, the IC50 was 23 µM; the “SIglucose GLUT1/PfHT (Specificity Index, IC50 for GLUT1/IC50 for PfHT)” value was 2–3 and 3.1.
Consider `CC(C)(C)c1ccc(C(=O)Nc2cccc(-c3nc4ccccc4[nH]3)c2)cc1` [Compound 20], for which the IC50 was 31 µM against human GLUT1 and more than 10 µM on PfHT (setting [2]).
`CCN(CC)CCCC(C)Nc1ccnc2cc(Cl)ccc12` (centres unmarked) [Chloroquine, chloroquine, reference compound]: the figures for the 50% effective concentration (EC50) in the assay on P. falciparum strain K1 and in the assay with P. falciparum strain 3D7 were 0.81 µM and 0.08 µM, respectively.
`CCC(C)(C)C1CCc2[nH]c3ccccc3c(=O)c2C1` (centres unmarked) [Compound 4] returned a half-maximal inhibitory concentration (IC50) against human GLUT1 of 5.7 µM. Further, on PfHT, the 50% inhibitory concentration (IC50) amounted to 27 µM and the “SIglucose GLUT1/PfHT (Specificity Index, IC50 for GLUT1/IC50 for PfHT)” value was determined as 0.21. Moreover, in assay [1], the EC50 was 0.38 µM.
In turn, `COc1ccc(Nc2ccc3cc(S(=O)(=O)N4CCCCC4C)ccc3n2)cc1Cl` (centres unmarked) [Compound 11] had an IC50 on human GLUT1 of 61 µM. Moreover, on PfHT, 0.94 µM corresponded to half-maximal inhibition (IC50); the “selective inhibition of PfHT versus GLUT1” value is reported as 65 fold; the “SIglucose GLUT1/PfHT (Specificity Index, IC50 for GLUT1/IC50 for PfHT)” value came out at 65.
In the case of `Cc1cc(=O)[nH]c(-n2nc(C)cc2NC(=O)C(c2ccccc2)c2ccccc2)n1` [Compound 6], the concentration for half-maximal inhibition (IC50) came out at 0.66 µM against human GLUT1 and 12 µM at PfHT. Besides, on PfHT, the “SIglucose GLUT1/PfHT (Specificity Index, IC50 for GLUT1/IC50 for PfHT)” value is recorded as 0.055. Moreover, in assay [1], the EC50 is 0.84 µM.
As to `COc1ccc(Nc2cc(C)nc(Nc3ccc(NC(C)=O)cc3)n2)cc1` [Compound 5], the IC50 against human GLUT1 came out at 0.25 µM. At PfHT, the 50% inhibitory concentration (IC50) stood at 3.4 µM and the “SIglucose GLUT1/PfHT (Specificity Index, IC50 for GLUT1/IC50 for PfHT)” value is listed as 0.073. For the same compound, the concentration for a half-maximal effect (EC50) in assay [1] is 0.86 µM.
`CC(C)(C)C(=O)Nc1ccc(C(=O)Nc2cccc(-c3nc4ccccc4[nH]3)c2)cc1` [Compound 8] yielded a half-maximal inhibitory concentration (IC50) against human GLUT1 of 0.37 µM. Besides, on PfHT, half-maximal inhibition (IC50) was put at 2.7 µM and the “SIglucose GLUT1/PfHT (Specificity Index, IC50 for GLUT1/IC50 for PfHT)” value is recorded as 0.14. For the same compound, in assay [1], the 50% effective concentration (EC50) was 0.28 µM.
For the compound `CCC(C)(CC)C(=O)n1ncc2c3c(N)nc(N)nc3ccc21` [Compound 2], the midpoint of inhibition on human GLUT1, the IC50, lay at 44 µM. On PfHT, half-maximal inhibition (IC50) required 3 µM and the “SIglucose GLUT1/PfHT (Specificity Index, IC50 for GLUT1/IC50 for PfHT)” value stood at 15. Further, the concentration for a half-maximal effect (EC50) in assay [1] was 0.01 µM.
In the case of `COc1ccc(Nc2ccc3cc(S(=O)(=O)N4CCOCC4)ccc3n2)cc1OC` [Compound 15], the concentration for half-maximal inhibition (IC50) against human GLUT1 turned out to be 0.84 µM; at PfHT it was 3.1 µM. Also, the “SIglucose GLUT1/PfHT (Specificity Index, IC50 for GLUT1/IC50 for PfHT)” value at PfHT is on record as 0.27.
In the case of `Cc1cccc(C(=O)Nc2cccc(-c3nc4ccccc4[nH]3)c2)c1` [Compound 17], the results for the concentration for half-maximal inhibition (IC50) against human GLUT1 and on PfHT were 12 µM and 13 µM, respectively. The “SIglucose GLUT1/PfHT (Specificity Index, IC50 for GLUT1/IC50 for PfHT)” value on PfHT amounted to 0.92.
Consider `O=C(Nc1cccc(-c2nc3ccccc3[nH]2)c1)c1ccccc1` [Compound 19], for which the half-inhibitory concentration (IC50) at human GLUT1 turned out to be 11 µM. At PfHT, the midpoint of inhibition, the IC50, lay at 5.3 µM; the “SIglucose GLUT1/PfHT (Specificity Index, IC50 for GLUT1/IC50 for PfHT)” value was 2–3 and 2.1.
`Cc1cc(C)cc(C(=O)Nc2cccc(-c3nc4ccccc4[nH]3)c2)c1` [Compound 18]: the IC50 against human GLUT1 stood at 12 µM. At PfHT, the half-maximal inhibitory concentration (IC50) is 16 µM and the “SIglucose GLUT1/PfHT (Specificity Index, IC50 for GLUT1/IC50 for PfHT)” value is listed as 0.75.
Turning to `O=C1c2ccc3c4c(ccc(c24)C(=O)N1CCCCO)C(=O)N(CCCCO)C3=O` [Compound 7], the 50% inhibitory concentration (IC50) against human GLUT1 is 3.6 µM and > 3 µM; on PfHT, 0.051 µM. For the same compound, the “selective inhibition of PfHT versus GLUT1” value on PfHT stood at 71 fold. Besides, the inhibition constant Ki was determined as 0.093 µM on PfHT (Kic (Ki for binding of inhibitor to free transporter), from plot of Km/Vmax versus [I]) and 0.091 µM on PfHT (Kiu (Ki for binding of inhibitor to substrate-bound transporter), from plot of 1/Vmax versus [I]). The Vmax was 274 ± 71 pmol per 10^7 cells per min on PfHT ([I] 100 nM) and 128 ± 42 pmol per 10^7 cells per min on PfHT ([I] 300 nM). The “mode of inhibition of glucose uptake through PfHT” value on PfHT (substrate saturation curves, one-way ANOVA of Vmax and Km) is given as “non-competitive inhibitors”. In addition, the “SIglucose GLUT1/PfHT (Specificity Index, IC50 for GLUT1/IC50 for PfHT)” value on PfHT came to 71. Besides, the concentration giving a half-maximal response (EC50) in assay [1] was 0.79 µM.
Turning to `CCN1CCN(Cc2ccc(NC(=O)c3cc4ccc5cccnc5c4[nH]3)cc2)CC1` [Compound 9], the half-maximal inhibitory concentration (IC50) on human GLUT1 was 9.5 µM. For the same compound, at PfHT, it took 3.5 µM to reach half-maximal inhibition (IC50) and the “SIglucose GLUT1/PfHT (Specificity Index, IC50 for GLUT1/IC50 for PfHT)” value is listed as 2.7. The 50% effective concentration (EC50) in assay [1] is 0.38 µM.
Consider `OC(c1cc(C(F)(F)F)nc2c(C(F)(F)F)cccc12)C1CCCCN1` (centres unmarked) [Mefloquine, mefloquine, reference compound], for which the half-maximal effective concentration (EC50) turned out to be 0.02 µM with P. falciparum strain K1 (multi-drug resistant strain K1, 72 h) and 0.12 µM in the assay with P. falciparum strain 3D7 (chloroquine sensitive strain 3D7, 72 h).
As for `CC(C)C(C(=O)n1ncc2c3c(N)nc(N)nc3ccc21)C(C)C` [Compound 3], it took 8.1 µM to reach half-maximal inhibition on human GLUT1 (IC50). Besides, at PfHT, the half-maximal inhibitory concentration (IC50) worked out at 1.1 µM and the “SIglucose GLUT1/PfHT (Specificity Index, IC50 for GLUT1/IC50 for PfHT)” value was found to be 7.4. For the same compound, the half-maximal effective concentration (EC50) in assay [1] is 0.65 µM.
On to `CC(C)(C)C(=O)Nc1ccc(C(=O)Nc2ccc(-c3nc4ccccc4[nH]3)cc2)cc1` [Compound 21], for which the midpoint of inhibition on human GLUT1, the IC50, lay at 11 µM. Moreover, at PfHT, the IC50 stood at 91 µM and the “SIglucose GLUT1/PfHT (Specificity Index, IC50 for GLUT1/IC50 for PfHT)” value is 0.12.
Turning to `COc1ccccc1Nc1ccc2cc(S(=O)(=O)N3CCCC3)ccc2n1` [Compound 14], the 50% inhibitory concentration (IC50) at human GLUT1 is 6.3 µM; at PfHT (setting [2]) it was more than 10 µM.
